Measured values published in patent US20250197372A1 (priority 2020, published 2025).

Columns and labels:
Format in all cases: biochemical
[1] = target: recombinant human GAA (acid alpha-glucosidase) (Homo sapiens, UniProt P10253); assay: Acid alpha-glucosidase (GAA) assay (4-methylumbelliferyl-alpha-D-pyranoside substrate, fluorescence)
Experimental: Acid alpha-glucosidase (GAA): To analyze inhibitory effects of a test compound, commercially available recombinant human GAA was incubated with multiple dilutions of test compound for 60 minutes at 37° C. 4-methylumbelliferyl-alpha-D-pyranoside was then introduced to the mixture as the substrate. 1,4-methyllumbelliferone is generated, and after an incubation for 20 minutes at 37° C., the reaction was stopped with the stop solution (0.5M glycine 0.3M NaOH pH 10). 1,4-methyllumbelliferone is detected by fluorescence (excitation at 365 nm, emission at 440 nm). Relative fluorescence compared to untreated enzymatic activity and test compound concentration is plotted as a function of percent inhibition. The IC50 is determined using a 4-PL curve fit as the measure of relative inhibitory activity of each test compound (see Table 3).

[2] = target: T1, recombinant alpha-glucosidase II (murine full-length glucosidase II, alpha and beta subunits, Glu 2) (Mus musculus, UniProt Q8BHN3); assay: Alpha-glucosidase II assay (4-methylumbelliferyl-alpha-D-pyranoside substrate, fluorescence); details: Glucosidase 2; read-out: Glu2 IC50
T1 construct: made in house; host or cells: HEK-293T cells transduced with BacMam viruses (75% alpha, 25% beta); protein harvested from culture supernatant
T1 sequence (O08795 15-521): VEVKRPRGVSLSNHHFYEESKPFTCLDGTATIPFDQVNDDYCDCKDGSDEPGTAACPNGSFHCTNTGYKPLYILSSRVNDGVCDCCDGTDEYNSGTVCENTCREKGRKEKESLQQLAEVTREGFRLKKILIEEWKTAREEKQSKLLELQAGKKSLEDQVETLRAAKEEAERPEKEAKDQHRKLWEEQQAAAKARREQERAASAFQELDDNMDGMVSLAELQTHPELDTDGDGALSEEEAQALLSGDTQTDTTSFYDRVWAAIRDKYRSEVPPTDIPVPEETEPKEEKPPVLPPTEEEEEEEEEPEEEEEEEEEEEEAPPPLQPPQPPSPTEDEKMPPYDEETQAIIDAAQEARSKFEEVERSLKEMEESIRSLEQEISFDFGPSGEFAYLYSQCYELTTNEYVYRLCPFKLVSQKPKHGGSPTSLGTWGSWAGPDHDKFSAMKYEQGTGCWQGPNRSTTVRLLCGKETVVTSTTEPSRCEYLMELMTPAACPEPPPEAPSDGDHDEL
T1 sequence (Q8BHN3 33-944): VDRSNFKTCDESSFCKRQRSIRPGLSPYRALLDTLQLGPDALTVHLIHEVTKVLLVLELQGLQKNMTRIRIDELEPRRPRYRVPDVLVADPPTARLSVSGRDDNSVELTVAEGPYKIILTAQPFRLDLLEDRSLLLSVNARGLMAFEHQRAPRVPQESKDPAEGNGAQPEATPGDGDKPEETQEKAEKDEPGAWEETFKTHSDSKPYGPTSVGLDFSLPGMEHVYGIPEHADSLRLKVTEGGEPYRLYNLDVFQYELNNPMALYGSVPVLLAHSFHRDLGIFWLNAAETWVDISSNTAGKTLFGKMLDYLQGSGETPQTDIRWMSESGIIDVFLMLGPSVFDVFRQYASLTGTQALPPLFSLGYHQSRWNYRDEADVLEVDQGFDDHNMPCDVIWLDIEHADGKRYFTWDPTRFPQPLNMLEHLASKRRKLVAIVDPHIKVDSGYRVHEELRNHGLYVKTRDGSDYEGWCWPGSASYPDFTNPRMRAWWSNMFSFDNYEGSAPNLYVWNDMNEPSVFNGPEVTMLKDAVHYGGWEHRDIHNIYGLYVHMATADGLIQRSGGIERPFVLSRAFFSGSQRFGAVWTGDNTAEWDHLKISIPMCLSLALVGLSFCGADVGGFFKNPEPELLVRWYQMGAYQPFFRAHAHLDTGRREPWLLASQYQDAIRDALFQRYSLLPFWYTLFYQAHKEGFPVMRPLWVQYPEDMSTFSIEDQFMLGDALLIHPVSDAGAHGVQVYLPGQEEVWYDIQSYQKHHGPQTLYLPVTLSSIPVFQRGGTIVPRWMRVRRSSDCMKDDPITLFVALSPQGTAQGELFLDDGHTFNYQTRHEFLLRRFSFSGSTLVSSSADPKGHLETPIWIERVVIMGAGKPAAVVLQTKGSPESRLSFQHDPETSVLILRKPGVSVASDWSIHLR

[3] = target: rat sucrase (partially purified alpha-glucosidase from intestinal rat powder) (Rattus norvegicus, UniProt P23739); assay: Intestinal alpha-glucosidase assay, sucrose substrate (Glucose GO Kit)
rat sucrase (partially purified alpha-glucosidase from intestinal rat powder), sequence (P23739 whole entry): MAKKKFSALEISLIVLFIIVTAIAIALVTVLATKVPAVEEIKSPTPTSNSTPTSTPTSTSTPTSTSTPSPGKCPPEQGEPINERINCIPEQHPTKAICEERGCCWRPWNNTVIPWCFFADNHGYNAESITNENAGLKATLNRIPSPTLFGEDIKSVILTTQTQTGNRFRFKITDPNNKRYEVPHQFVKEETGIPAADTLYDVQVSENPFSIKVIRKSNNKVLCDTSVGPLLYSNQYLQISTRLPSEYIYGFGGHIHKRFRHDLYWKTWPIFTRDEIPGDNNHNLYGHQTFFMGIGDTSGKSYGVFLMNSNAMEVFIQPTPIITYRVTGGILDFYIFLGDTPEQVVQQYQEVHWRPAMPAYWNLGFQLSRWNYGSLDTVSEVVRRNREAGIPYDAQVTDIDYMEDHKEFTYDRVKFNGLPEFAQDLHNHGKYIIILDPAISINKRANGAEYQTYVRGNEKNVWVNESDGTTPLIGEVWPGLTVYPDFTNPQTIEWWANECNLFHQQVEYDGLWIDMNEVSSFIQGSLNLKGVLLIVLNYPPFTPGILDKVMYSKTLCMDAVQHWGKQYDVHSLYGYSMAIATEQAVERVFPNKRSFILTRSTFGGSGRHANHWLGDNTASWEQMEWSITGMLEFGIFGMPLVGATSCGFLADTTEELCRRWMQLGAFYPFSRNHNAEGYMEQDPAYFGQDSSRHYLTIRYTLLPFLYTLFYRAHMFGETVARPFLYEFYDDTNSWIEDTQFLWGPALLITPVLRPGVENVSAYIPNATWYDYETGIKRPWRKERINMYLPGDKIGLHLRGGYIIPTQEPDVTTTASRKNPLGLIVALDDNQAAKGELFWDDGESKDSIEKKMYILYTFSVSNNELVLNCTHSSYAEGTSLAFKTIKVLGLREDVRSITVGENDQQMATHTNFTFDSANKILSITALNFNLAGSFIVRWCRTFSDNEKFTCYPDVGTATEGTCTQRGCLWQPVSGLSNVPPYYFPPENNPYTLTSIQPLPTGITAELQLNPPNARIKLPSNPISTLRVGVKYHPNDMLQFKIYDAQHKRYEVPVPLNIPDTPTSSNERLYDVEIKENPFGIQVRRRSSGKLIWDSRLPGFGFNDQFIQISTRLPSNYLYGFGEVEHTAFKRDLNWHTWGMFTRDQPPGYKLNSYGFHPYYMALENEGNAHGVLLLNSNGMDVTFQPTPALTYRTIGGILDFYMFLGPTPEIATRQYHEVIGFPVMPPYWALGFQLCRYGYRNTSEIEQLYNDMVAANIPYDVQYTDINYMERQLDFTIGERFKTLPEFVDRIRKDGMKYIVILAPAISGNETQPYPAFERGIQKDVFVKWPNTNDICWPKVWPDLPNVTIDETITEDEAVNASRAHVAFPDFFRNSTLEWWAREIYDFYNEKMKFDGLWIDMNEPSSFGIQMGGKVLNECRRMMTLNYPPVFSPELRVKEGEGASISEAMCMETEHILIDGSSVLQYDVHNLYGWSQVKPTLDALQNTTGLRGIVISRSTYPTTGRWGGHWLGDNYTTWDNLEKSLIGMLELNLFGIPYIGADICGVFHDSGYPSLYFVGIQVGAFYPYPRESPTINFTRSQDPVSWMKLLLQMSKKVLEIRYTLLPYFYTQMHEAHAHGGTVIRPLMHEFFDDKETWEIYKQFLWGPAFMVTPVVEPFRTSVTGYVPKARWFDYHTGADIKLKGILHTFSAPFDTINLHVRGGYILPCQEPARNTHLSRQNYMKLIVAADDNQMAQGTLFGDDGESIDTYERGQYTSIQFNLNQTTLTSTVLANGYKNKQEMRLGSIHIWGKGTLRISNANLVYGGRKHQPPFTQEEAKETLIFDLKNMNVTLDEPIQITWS
Experimental: (§1) Intestinal alpha-glucosidases (rat maltase and sucrase): Intestinal alpha-glucosidases act upon 1,4-alpha-glucoside bonds, breaking down disaccharides to glucose. To perform this assay, partially purified alpha-glucosidase from intestinal rat powder was incubated for 60 minutes at 37° C. with multiple dilutions of test compounds. Maltose or Sucrose respectively was then introduced as substrate to the mixture and incubated for 30 minutes at 37° C. The reaction was stopped by a 5-minute incubation at 90° C. and the resultant glucose production is detected using Sigma's Glucose GO Kit. Percent inhibition was then plotted as a function of concentration for each test compound. The IC50 was determined using a 4-PL curve fit and serves as the measure of relative inhibition of each test compound (see Table 3).

[4] = target: T2, recombinant alpha-glucosidase I (human full-length glucosidase I, Glu 1) (Homo sapiens, UniProt Q13724); assay: Alpha-glucosidase I assay (Amplex Red glucose detection, synthetic trisaccharide substrate); details: Glucosidase 1; read-out: Glu 1 IC50
T2 construct: 6-His (C); made in house; host or cells: HEK-293T cells transduced with BacMam virus (virus raised in Sf9)
T2 sequence (Q13724 1-837): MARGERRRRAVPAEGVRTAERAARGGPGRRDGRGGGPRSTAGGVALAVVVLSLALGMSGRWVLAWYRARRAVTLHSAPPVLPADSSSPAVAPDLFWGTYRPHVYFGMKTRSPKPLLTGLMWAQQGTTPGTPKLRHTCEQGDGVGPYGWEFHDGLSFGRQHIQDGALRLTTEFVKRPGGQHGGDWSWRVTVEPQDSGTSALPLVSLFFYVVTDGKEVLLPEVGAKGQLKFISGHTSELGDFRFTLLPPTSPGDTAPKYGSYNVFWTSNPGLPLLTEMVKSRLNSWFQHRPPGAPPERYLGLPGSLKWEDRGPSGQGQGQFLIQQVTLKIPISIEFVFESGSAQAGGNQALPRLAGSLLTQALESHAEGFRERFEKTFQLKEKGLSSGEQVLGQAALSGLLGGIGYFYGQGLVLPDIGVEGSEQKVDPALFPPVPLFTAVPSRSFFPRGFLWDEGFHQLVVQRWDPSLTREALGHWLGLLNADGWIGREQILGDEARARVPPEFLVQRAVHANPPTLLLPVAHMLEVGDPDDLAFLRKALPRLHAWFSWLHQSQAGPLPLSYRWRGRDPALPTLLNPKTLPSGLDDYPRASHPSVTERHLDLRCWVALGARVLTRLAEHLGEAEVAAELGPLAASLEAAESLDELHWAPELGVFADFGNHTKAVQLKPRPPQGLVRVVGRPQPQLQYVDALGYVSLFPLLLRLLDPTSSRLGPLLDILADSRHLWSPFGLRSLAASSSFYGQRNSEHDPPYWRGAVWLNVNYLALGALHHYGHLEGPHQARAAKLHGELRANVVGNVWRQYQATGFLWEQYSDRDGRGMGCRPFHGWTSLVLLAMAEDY
Source text: Preparation of Human Full-length Glucosidase I: The amino acid sequence for human full-length glucosidase I was obtained from UniProt (Q13724). […] The entry vector was cloned into Kemp Proteins' BacMam Destination vector and transformed into chemically competent DH10Bac E. coli cells to produce recombinant glucosidase I bacmids. Bacmid isolates were obtained following two rounds of blue-white screening and they were transfected into Sf9 cells cultivated in serum-free medium (Thermo Fisher Scientific). Four days post-transfection the culture supernatants containing virus were harvested and filter sterilized. […] A multiplicity of infection (MOI, ratio of virus to cells) of 4 was selected. Soluble glucosidase I was detected by anti-His western blots in the soluble cell extract following extraction with 1% V/V NP40 for 30 minutes at 0° C. Productions and purifications of glucosidase I were carried out at scales ranging from 1-liter to 10-liters. […] In another example production at the 10-liter scale was performed in stirred-tank bioreactors at 27° C. and 80 rpm with dissolved oxygen level at 50% of oxygen in air and pH between 7.0 and 7.2. Cells were transduced at MOI of 4 and the cell pellet was harvested at 48 hours post-transduction using centrifugation.
The pellet from a 10-liter culture was lysed by resuspending the pellet into 1-liter of 50 mM NaH2PO4—H2O+300 mM NaCl+10 mM Imidazole+1 mM PMSF+1% V/V NP40 pH 8. The suspension was incubated on ice for 30 minutes and clarified at 500×g and 4° C. The supernatant was collected and clarified at 20,000×g for 30 minutes at 4° C. and the supernatant was collected and filtered through a 0.2 micron filter. […] The column was washed with 20 column volumes (CV) of 50 mM NaH2PO4-H2O+300 mM NaCl+10 mM Imidazole pH 8 and eluted using a linear gradient of 0-60% 50 mM NaH2PO4-H2O+300 mM NaCl+500 mM Imidazole pH 8 over 90 minutes. at 5 mL per minute. Fractions (25 mL) were collected and analyzed by SDS PAGE and Western Blot (reducing anti-His). Fractions containing purified glucosidase I were pooled and dialyzed into storage buffer (20 mM Tris+300 mM NaCl+50 mM L-arginine+10 mM EDTA+0.01% V/V Tween 80 pH 7.5). The final material was filter sterilized and stored at 4° C. and the working dilution confirmed by a use-test in the indicated assay conditions prior to use.
Alpha-glucosidase I Assay: The assay was performed by incubating recombinant alpha-glucosidase I enzyme with multiple dilutions of test compounds for 60 minutes at 37° C. A synthetic trisaccharide substrate analog was then introduced to the mixture for 90 minutes at 37° C. The reaction was then stopped with 1.5M Tris (pH 8). In the absence of inhibition, the terminal glucose of the substrate was hydrolyzed by the enzyme. The D-glucose product was detected using Amplex Red Glucose/Glucose Oxidase Assay Kit (Invitrogen) following the manufacturer's directions where glucose oxidase reacts with D-glucose to form D-gluconolactone and H2O2 which then reacts with the Amplex Red reagent to generate a red-fluorescent oxidation product (560 nm, excitation; 590 nm, emission). […] Percent inhibition is plotted as a function of concentration for each compound, compared to control reactions. The IC50 was determined using a 4-PL curve fit and serves as a measure of relative inhibitory activity of each test compound (see Table 3).

[5] = target: rat maltase (partially purified alpha-glucosidase from intestinal rat powder); assay: Intestinal alpha-glucosidase assay, maltose substrate (Glucose GO Kit)
Experimental: as §1

| Structure (SMILES) | IC50 [1] [nM] | IC50 [2] [nM] | IC50 [3] [nM] | IC50 [4] [nM] | IC50 [5] [nM] |
| --- | --- | --- | --- | --- | --- |
| OC[C@@H]1[C@@H](O)[C@H](O)[C@@H](O)CN1Cc1ccc(CNc2ccc(-c3cccnn3)cc2)cc1 [Compound 1095, (2R,3R,4R,5S)-2-(hydroxymethyl)-1-{[4-({[4-(pyridazin-3-yl)phenyl]amino}methyl)phenyl]methyl}piperidine-3,4,5-triol] | 243 | 657 | 13 | 12 | 11 |
| O=[N+]([O-])c1cc(CN2CCCO2)ccc1NCc1ccc(CN2C[C@H](O)[C@@H](O)[C@H](O)[C@H]2CO)cc1 [Compound 1098] | 175 | 83 | 40 | 23 | 13 |
| [N-]=[N+]=Nc1ccc(NCC2COC(CN3C[C@H](O)[C@@H](O)[C@H](O)[C@H]3CO)CO2)c([N+](=O)[O-])c1 (stereo partly drawn) [Compound 1280, (2R,3R,4R,5S)-1-[(5-{[(4-azido-2-nitrophenyl)amino]methyl}-1,4-dioxan-2-yl)methyl]-2-(hydroxymethyl)piperidine-3,4,5-triol] |  | 194 |  | 1460 |  |
